Data set [1] concerns the target G protein-coupled receptor kinase 5 (Homo sapiens, UniProt P34947).
Description: Inhibition of recombinant human full length GST-tagged GRK5 expressed in baculovirus using ulight topo2alpha as substrate preincubated for 60 mins followed by substrate addition measured after 10 mins by Lance TR-FRET assay
Data set [2] addresses Rho-associated protein kinase 2 (Homo sapiens, UniProt O75116). The data set can be described thus: Inhibition of recombinant human N-terminal GST-tagged ROCK2 catalytic domain (1 to 553 residues) expressed in baculovirus expression system using STK 2-biotin as substrate measured after 60 mins by HTRF/TR-FRET assay. (TR-FRET usually uses a lanthanide donor and a delayed reading to cut background.)

A further data set has as its target T1, Rhodopsin kinase GRK1 (Homo sapiens, UniProt Q15835).
T1 sequence (Q15835 whole entry): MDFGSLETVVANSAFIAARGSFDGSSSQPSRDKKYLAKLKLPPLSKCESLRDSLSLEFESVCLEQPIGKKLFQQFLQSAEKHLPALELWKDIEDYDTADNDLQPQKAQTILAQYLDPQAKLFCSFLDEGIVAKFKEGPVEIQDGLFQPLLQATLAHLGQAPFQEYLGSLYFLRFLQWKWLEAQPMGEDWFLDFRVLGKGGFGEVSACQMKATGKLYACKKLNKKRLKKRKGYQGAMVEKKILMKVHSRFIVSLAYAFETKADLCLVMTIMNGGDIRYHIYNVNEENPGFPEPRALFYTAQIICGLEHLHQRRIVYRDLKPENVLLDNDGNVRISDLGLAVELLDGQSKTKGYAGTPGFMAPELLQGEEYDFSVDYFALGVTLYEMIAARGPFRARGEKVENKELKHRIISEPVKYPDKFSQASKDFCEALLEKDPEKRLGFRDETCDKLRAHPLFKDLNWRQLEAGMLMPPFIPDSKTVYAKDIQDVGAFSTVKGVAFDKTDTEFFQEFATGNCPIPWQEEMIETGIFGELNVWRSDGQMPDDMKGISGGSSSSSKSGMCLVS
The data set can be described thus: Inhibition of recombinant human GST-tagged GRK1 expressed in baculovirus infected fall armyworm Sf9 cells after 60 mins by LanthaScreen eu kinase binding assay.

The target in data set [3] is G protein-coupled receptor kinase 6 (Homo sapiens, UniProt P43250). In words: Inhibition of recombinant human full length GST-tagged GRK6 expressed in baculovirus using ulight topo2alpha as substrate preincubated for 60 mins followed by substrate addition measured after 10 mins by Lance TR-FRET assay.
G protein-coupled receptor kinase 6, sequence (P43250 whole entry): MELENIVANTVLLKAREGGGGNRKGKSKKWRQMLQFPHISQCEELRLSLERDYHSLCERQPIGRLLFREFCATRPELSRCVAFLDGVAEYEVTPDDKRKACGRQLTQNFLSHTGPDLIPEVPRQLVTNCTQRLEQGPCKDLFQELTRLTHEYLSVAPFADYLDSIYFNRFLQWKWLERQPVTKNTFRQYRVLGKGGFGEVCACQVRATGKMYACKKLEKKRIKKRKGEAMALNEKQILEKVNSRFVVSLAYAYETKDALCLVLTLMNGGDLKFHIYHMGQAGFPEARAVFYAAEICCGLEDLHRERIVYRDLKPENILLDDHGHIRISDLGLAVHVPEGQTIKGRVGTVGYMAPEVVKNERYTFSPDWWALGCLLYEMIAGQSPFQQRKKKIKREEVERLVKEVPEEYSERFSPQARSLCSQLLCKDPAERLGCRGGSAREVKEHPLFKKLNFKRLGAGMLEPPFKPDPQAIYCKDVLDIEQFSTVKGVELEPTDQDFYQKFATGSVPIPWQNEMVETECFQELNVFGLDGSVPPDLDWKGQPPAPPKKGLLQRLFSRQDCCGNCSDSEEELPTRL
For a further data set, the target named is T2, Rhodopsin kinase GRK7 (Homo sapiens, UniProt Q8WTQ7).
T2 sequence (Q8WTQ7 whole entry): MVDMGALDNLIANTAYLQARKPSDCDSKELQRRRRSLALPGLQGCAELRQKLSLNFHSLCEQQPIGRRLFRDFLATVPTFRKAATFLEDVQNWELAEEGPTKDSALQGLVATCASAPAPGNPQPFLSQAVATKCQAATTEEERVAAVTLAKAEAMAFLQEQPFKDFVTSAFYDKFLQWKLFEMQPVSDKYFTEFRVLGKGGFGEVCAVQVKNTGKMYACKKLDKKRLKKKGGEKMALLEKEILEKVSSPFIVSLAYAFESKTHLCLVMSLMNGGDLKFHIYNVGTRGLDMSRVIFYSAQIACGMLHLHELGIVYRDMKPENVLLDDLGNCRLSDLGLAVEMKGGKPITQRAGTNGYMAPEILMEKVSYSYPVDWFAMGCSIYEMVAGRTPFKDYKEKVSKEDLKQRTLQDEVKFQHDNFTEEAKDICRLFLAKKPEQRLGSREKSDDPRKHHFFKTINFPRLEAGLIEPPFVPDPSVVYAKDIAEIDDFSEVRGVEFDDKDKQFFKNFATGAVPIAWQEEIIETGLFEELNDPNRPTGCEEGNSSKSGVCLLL
The data set can be described thus: Inhibition of recombinant human full length GST-tagged GRK7 expressed in baculovirus using ulight topo2alpha as substrate preincubated for 60 mins followed by substrate addition measured after 10 mins by Lance TR-FRET assay.

Data set [4] has as its target T3, G protein-coupled receptor kinase 3 (Homo sapiens, UniProt P35626).
T3 sequence (P35626 whole entry): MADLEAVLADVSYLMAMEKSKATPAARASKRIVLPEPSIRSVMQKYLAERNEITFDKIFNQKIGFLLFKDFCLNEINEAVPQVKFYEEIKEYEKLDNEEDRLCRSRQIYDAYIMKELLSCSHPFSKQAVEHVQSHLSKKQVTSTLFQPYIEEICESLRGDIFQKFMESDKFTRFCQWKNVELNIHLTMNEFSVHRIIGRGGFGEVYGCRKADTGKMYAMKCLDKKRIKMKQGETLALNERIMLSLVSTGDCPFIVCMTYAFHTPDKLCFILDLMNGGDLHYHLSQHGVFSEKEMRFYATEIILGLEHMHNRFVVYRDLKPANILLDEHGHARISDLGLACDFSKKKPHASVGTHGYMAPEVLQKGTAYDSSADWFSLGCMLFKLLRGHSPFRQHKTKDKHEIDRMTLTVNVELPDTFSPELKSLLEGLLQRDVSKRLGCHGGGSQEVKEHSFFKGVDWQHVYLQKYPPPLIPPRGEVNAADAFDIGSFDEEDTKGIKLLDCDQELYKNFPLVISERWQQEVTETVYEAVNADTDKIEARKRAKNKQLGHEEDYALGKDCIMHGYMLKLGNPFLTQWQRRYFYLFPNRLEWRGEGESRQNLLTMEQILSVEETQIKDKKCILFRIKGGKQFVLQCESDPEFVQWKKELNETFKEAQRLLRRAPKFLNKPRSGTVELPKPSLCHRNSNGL
The data set can be described thus: Inhibition of recombinant human full length GST-tagged GRK3 expressed in baculovirus using ulight topo2alpha as substrate preincubated for 60 mins followed by substrate addition measured after 10 mins by Lance TR-FRET assay.

For another data set, the target named is CYP3A4 (Homo sapiens, UniProt P08684). In words: Inhibition of CYP3A4 (unknown origin) at 10 uM. It counts as ADME.
CYP3A4, sequence (P08684 whole entry): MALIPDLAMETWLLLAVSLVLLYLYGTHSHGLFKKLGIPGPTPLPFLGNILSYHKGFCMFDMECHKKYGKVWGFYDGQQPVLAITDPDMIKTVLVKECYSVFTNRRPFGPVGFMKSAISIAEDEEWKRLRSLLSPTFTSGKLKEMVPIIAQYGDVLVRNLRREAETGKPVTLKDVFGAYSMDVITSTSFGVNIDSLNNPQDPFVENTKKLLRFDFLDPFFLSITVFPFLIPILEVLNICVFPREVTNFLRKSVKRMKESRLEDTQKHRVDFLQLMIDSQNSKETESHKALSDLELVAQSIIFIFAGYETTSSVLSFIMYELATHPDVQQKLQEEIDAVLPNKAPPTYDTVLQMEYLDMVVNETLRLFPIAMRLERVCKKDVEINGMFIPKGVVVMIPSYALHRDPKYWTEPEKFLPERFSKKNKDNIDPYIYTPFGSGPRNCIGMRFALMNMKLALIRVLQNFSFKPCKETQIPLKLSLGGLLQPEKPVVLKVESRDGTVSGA
Data set [5] concerns the target Protein kinase C alpha type (Homo sapiens, UniProt P17252). In words: Inhibition of human PKCalpha active using MBP as substrate after 60 mins in presence of [gamma-32]ATP by scintillation counting.

Each structure is given as a SMILES string.

G protein-coupled receptor kinase 5, sequence (P34947 whole entry, the tested form may be a part): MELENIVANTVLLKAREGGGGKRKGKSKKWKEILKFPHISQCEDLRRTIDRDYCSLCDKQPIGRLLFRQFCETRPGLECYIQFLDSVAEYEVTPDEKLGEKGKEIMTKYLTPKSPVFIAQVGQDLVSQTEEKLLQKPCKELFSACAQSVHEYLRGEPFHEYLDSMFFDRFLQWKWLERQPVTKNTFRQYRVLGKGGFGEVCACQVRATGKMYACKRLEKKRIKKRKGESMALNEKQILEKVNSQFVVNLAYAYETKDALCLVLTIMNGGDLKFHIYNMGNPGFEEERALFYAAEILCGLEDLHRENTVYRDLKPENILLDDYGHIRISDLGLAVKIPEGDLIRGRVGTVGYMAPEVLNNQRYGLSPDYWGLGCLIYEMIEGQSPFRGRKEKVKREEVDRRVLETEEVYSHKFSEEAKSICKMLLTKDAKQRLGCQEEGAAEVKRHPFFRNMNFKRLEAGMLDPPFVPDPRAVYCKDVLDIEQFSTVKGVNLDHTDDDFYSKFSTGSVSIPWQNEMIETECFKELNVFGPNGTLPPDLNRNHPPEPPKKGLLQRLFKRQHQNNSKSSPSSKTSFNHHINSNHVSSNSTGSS
Rho-associated protein kinase 2, sequence (O75116 whole entry, the tested form may be a part): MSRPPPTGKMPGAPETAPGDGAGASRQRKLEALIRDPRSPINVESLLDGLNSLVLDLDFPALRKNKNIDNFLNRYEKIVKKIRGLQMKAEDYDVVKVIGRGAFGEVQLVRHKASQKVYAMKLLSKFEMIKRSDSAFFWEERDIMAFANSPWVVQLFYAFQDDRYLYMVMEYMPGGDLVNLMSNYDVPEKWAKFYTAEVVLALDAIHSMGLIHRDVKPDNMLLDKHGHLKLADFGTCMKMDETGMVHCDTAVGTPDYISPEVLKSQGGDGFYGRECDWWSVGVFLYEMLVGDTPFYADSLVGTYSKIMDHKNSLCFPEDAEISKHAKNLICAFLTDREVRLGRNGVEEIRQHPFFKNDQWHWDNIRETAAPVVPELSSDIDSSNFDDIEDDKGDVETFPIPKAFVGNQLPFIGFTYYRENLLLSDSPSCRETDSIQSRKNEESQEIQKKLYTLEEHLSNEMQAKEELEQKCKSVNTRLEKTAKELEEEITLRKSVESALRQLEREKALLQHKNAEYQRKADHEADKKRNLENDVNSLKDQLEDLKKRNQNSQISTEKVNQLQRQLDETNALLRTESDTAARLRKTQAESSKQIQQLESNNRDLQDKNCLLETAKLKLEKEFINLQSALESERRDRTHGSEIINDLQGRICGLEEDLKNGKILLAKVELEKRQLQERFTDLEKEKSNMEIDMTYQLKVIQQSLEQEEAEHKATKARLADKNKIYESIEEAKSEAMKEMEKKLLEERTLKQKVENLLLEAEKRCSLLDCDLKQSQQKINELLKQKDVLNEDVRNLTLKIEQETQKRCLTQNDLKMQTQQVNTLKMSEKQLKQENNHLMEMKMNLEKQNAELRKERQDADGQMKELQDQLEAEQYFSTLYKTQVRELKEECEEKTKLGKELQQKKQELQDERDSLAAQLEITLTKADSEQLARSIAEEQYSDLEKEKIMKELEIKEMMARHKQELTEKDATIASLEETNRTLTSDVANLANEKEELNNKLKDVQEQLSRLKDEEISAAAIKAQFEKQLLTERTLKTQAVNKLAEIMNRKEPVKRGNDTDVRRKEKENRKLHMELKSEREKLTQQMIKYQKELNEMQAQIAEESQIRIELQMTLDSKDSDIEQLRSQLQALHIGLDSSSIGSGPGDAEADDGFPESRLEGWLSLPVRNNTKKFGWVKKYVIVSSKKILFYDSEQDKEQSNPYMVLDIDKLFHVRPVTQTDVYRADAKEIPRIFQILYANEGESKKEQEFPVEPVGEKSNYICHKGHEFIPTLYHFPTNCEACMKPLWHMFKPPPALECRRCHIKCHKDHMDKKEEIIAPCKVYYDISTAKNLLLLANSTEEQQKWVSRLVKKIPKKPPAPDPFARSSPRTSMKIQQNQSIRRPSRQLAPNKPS

Take `O=C(NCc1ccccc1C(F)(F)F)c1cccc(NCc2nnc3n2CCOc2cnccc2-3)c1`: the IC50 (in general, the concentration needed to halve the response being measured) in data set [1] is 1500 nM; in data set [2], 49 nM; at Rhodopsin kinase GRK1 it was 270 nM; in data set [3], more than 30000 nM; on Rhodopsin kinase GRK7, 2400 nM; in data set [4], 0.65 nM. Further, at CYP3A4, the inhibition (commonly the percentage by which the read-out fell short of the control) at 10 µM amounted to 83%.

In the case of `Cc1c(-c2ccncc2)n[nH]c1CNc1cccc(C(=O)NCc2ccccc2)c1`, the IC50 in data set [1] was more than 30000 nM; in data set [2] it was 23 nM; at Rhodopsin kinase GRK1 it was more than 30000 nM; in data set [5], 4800 nM; in data set [3] it was more than 30000 nM; at Rhodopsin kinase GRK7, 18000 nM. Besides, the IC50 in data set [4] was 4.3 nM. In addition, on CYP3A4, at 10 µM the inhibition was 96%.

As to `CNC(=O)c1cccc(NCc2nc(-c3ccncc3)n[nH]2)c1`, the IC50 in data set [1] was more than 30000 nM; in data set [2] it was 220 nM; on Rhodopsin kinase GRK1, more than 30000 nM; in data set [5], more than 10000 nM; in data set [3], more than 30000 nM; on Rhodopsin kinase GRK7, more than 30000 nM. Further, in data set [4], the concentration for half-maximal inhibition (IC50) was 21 nM. The compound further had an inhibition at 10 µM at CYP3A4 of 66%.

Take `COc1ccc(NCc2nc(-c3ccncc3)n[nH]2)cc1`: the IC50 in data set [2] is 280 nM; in data set [5] it was more than 10000 nM. The inhibition at 10 µM at CYP3A4 was determined as 95%.

With `O=C(Cc1ccccc1)Nc1cc(NCc2nc(-c3ccncc3)n[nH]2)ccc1Cl`, the IC50 was 18 nM in data set [2] and 1700 nM in data set [5]. Besides, the inhibition at 10 µM at CYP3A4 worked out at 90%.

`COc1ccccc1CNC(=O)c1cccc(NCc2nnc(-c3ccncc3)n2C)c1`: the IC50 in data set [2] was 1600 nM; in data set [5], more than 10000 nM. For the same compound, the inhibition at 10 µM against CYP3A4 is 60%.

For `O=C(NCc1ccccc1)c1cccc(NCc2nnc(-c3ccncc3)o2)c1`, the IC50 in data set [2] is 320 nM; in data set [5], more than 10000 nM. This compound also yielded an inhibition at 10 µM at CYP3A4 of 43%.

For the compound `Clc1cccc(NCc2nc(-c3ccncc3)n[nH]2)c1`, the IC50 in data set [2] was 380 nM; in data set [5], more than 10000 nM. This compound came in with an inhibition at 10 µM against CYP3A4 of 93%.

Take `O=C(NCCCc1ccccc1)c1cccc(NCc2nc(-c3ccncc3)n[nH]2)c1`: the IC50 in data set [2] is 100 nM; in data set [5], more than 10000 nM. Also, the inhibition at 10 µM at CYP3A4 stood at 94%.

Turning to `NS(=O)(=O)c1cccc(NCc2nc(-c3ccncc3)n[nH]2)c1`, the IC50 in data set [2] was 160 nM; in data set [5], more than 10000 nM. Moreover, the inhibition at 10 µM against CYP3A4 was determined as 25%.

`O=C(NCc1ccccc1)c1cccc(NCc2cc(-c3ccncc3)c[nH]2)c1`: the IC50 in data set [2] was 52 nM; in data set [5] it was more than 10000 nM. For the same compound, at CYP3A4, testing at 10 µM gave an inhibition of 100%.

As for `COc1ccccc1NCc1nc(-c2ccncc2)n[nH]1`, the IC50 was 1800 nM in data set [2] and more than 10000 nM in data set [5]. On CYP3A4, this compound registered an inhibition at 10 µM of 93%.

With `Cn1c(CNc2cccc(C(=O)NCc3c(F)cccc3F)c2)nnc1-c1ccncn1`, the IC50 in data set [2] is 1900 nM; in data set [5], more than 10000 nM. At CYP3A4, at 10 µM the inhibition was 24%.

Take `c1ccc(CSc2cccc(NCc3nc(-c4ccncc4)n[nH]3)c2)cc1`: the IC50 is 1200 nM in data set [2] and more than 10000 nM in data set [5]. The compound also had an inhibition at 10 µM against CYP3A4 of 100%.

With `CCn1c(CNc2cccc(C(=O)NCc3ccccc3)c2)nnc1-c1ccncc1`, the IC50 in data set [2] is 76 nM; on Rhodopsin kinase GRK1 it was more than 30000 nM; in data set [5] it was 2900 nM; in data set [3], more than 30000 nM; at Rhodopsin kinase GRK7 it was more than 30000 nM; in data set [4], 3.3 nM. For the same compound, on CYP3A4, the inhibition at 10 µM came to 50%.

`O=C(NCc1ccccc1)c1cccc(NCc2nc(-c3ccncc3)n[nH]2)c1`: the IC50 in data set [1] was 5700 nM; in data set [2] it was 24 nM; on Rhodopsin kinase GRK1 it was more than 30000 nM; in data set [5], 6300 nM; in data set [3] it was more than 30000 nM; at Rhodopsin kinase GRK7, 8800 nM. Besides, in data set [4], the IC50 is 1.8 nM. This compound also displayed an inhibition at 10 µM against CYP3A4 of 91%.

With `Cn1c(CNc2cccc(C(=O)NCc3c(F)cccc3F)c2)nnc1-c1ccnc(NCc2ccccc2)c1`, the IC50 in data set [2] and in data set [5] was more than 10000 nM in each case. Further, at CYP3A4, at 10 µM the inhibition was 47%.

In the case of `O=C(NCc1ccccc1Cl)c1cccc(NCc2nnc(-c3ccncc3)[nH]2)c1`, the IC50 was 50 nM in data set [2] and 1100 nM in data set [5]. Besides, the inhibition at 10 µM against CYP3A4 was 97%.

Turning to `CCCn1c(CNc2cccc(C(=O)NCc3c(F)cccc3F)c2)nnc1-c1ccncn1`, the IC50 in data set [2] was found to be 190 nM; in data set [5], 250 nM. Also, at 10 µM the inhibition on CYP3A4 was 51%.

Take `COc1cccc(CNC(=O)c2cccc(NCc3nnc(-c4ccncc4)[nH]3)c2)c1`: the results for the IC50 in data set [2] and in data set [5] were 20 nM and 3200 nM, respectively. On CYP3A4, the inhibition at 10 µM turned out to be 95%.

With `COc1cccc(NCc2nc(-c3ccncc3)n[nH]2)c1`, the IC50 in data set [2] is 720 nM; in data set [5], more than 10000 nM. The compound also displayed an inhibition at 10 µM against CYP3A4 of 92%.

On to `c1ccc(NCc2nc(-c3ccncc3)n[nH]2)cc1`, for which the IC50 in data set [2] is 630 nM; in data set [5] it was more than 10000 nM. Further, on CYP3A4, the inhibition at 10 µM was found to be 94%.

For the compound `O=C(NCc1ccccc1C(F)(F)F)c1cccc(NCc2nnc(-c3ccncc3)n2CCO)c1`, the IC50 in data set [2] came out at 320 nM; in data set [5] it was 7600 nM. Besides, at CYP3A4, the inhibition at 10 µM worked out at 79%.

Consider `c1ccc(CCOc2cccc(NCc3nc(-c4ccncc4)n[nH]3)c2)cc1`, for which the IC50 in data set [2] is 2700 nM; in data set [5], more than 10000 nM. Besides, the inhibition at 10 µM against CYP3A4 worked out at 96%.

On to `Clc1ccc(NCc2nc(-c3ccncc3)n[nH]2)cc1`, for which the values for the IC50 in data set [2] and in data set [5] were 94 nM and more than 10000 nM, respectively. The same compound yielded an inhibition at 10 µM at CYP3A4 of 97%.

The record behind these values is ChEMBL document CHEMBL4038320 (J Med Chem, 2017).
